This is an account of results in patent publication US20070275943A1, “Method and Composition for Treatment or Prophylaxis of Amyloidosis Disorders” (Acrux DDS Pty Ltd., priority 2003, published 2007).

The conditions of data set [1]: molar ratio 1:1 (zinc: Aβ); read-out: KD of high affinity zinc binding; cited from earlier work.
Data set [2] is described as follows: Diffusion across excised human epidermis, flow-through diffusion cells, finite dose. The settings on record: test spray (5% w/v 1,10-phenanthroline + 5% w/v octyl salicylate in 95% ethanol) vs control without enhancer, 24 h, 5 μL/cm^2, p<0.01.
Method: The diffusion experiments were performed using excised human epidermis as the model membrane. These experiments were performed over 24 h with stainless steel, flow-through diffusion cells based on those previously described, (Cooper, E. R. J. Pharm. Sci. 1984, 73, 1153-1156.) except that the cell was modified to increase the diffusional area to 1.0 cm^2. The formulations were applied using a finite dose technique (Franz, T. J. Curr. Probl. Dermatol. 1978, 7, 58-68.) to mimic clinical dosing conditions at an applied dose volume of 5 μL/cm^2. A piece of stainless steel wire mesh was placed directly below the skin in the receptor chamber of the diffusion cell to maintain a turbulent flow of receptor solution below the skin. The diffusion cells were maintained at a flow rate of approximately 1.0 ml/cm^2/h by a microcassette peristaltic pump (Watson Marlow 505S, UK). The cells were kept at 32±0.5° C. by a heater bar and the samples are collected into appropriately sized plastic vials on an automated fraction collector (Isco Retriever II, Lincoln, Nebr.) at specified intervals. […]
Samples were analysed for 1,10-phenanthroline directly by RP-HPLC using the following conditions; Column—Waters Symmetry C18 column (3.9×150 mm) with a 5 μm support size; Mobile phase—20% Acetonitrile buffered with 0.01 M KH2PO4, pH=2.80; Flow rate—0.9 mL/min; Absorbance—235 nm; and Injection volume—20 μL.

A word on the Kd: it is the equilibrium constant for the complex coming apart. “Aβ: polypeptide, major component of the amyloid deposits in Alzheimer's disease”: in data set [1], the equilibrium dissociation constant (Kd) is 107 nM. Consider `c1cnc2c(c1)ccc1cccnc12` [1,10-phenanthroline], for which, in data set [2], the “increase in the transdermal delivery of 1,10-phenanthroline across the skin” value is on record as 1.3 fold.
